In patent US10227374B2, “Silyl etherified derivatives of 5-azacytidines in carbohydrate moiety” (OHARA PHARMACEUTICAL CO., LTD., priority 2016, dated 2019):
Like-named read-outs stand apart in the source and are kept apart here.

Legend:
[1] = target: cytidine deaminase: CDA (1-146aa), Human, His-tagged, Recombinant (Homo sapiens, UniProt P32320); assay: Stability against cytidine deaminase (HPLC)
Procedure: Stability of Silyl Etherified Derivatives of 5-azacytidines in Carbohydrate Moiety Against Cytidine Deaminase
About 1 mg each of the silyl etherified derivatives of 5-azacytidines in carbohydrate moiety (referring to formula (1a)) was dissolved in 1 mL of acetonitrile. 10 μL of the solution was diluted with 1 mL of PBS. 10 μL of PBS solution of cytidine deaminase was added to the solution and stirred at 37° C. for about 1 hour. 1 mL of acetonitrile was added to the reaction solution and separated by centrifugation. The supernatant was analyzed with HPLC.
Cytidine deaminase: CDA (1-146aa), Human, His-tagged, Recombinant cytidine deaminase (ATGen)
Column: CAPCELL PAK ADME (4.6 mm×150 mm, particle size: 3 μm)
Elution: eluate A=Purified water containing 10 mM ammonium formate • eluate B=Acetonitrile • Gradient mode: A:B=99:1→5:95/30 minutes

RPMI-8226 myeloma cells = assay: Anti-myeloma activity, inhibition of cell proliferation; assay type: cell-based; details: Homo sapiens, 72 hours incubation, cell count
Procedure: After incubation in RPMI-1640 (containing 10% FBS and 1% Penn-strep) for 72 hours, cell count was determined and IC50 values were calculated as inhibitory effect against cell proliferation (referring to Journal of Clinical Pathology, 2006, 59, 947-951.).

[2] = Non-enzymatic hydrolysis in PBS solution at 37° C. (HPLC); assay type: physicochemical; details: 10 mM PBS; for 5-Azacytidine or 2′-deoxy-5-azacytidine (%) After 4 hours / 5-Azacytidine or 2′-deoxy-5-azacytidine (%) After 8 hours / 5-Azacytidine or 2′-deoxy-5-azacytidine (%) After 24 hours: released parent by HPLC; for production of the desilylated parent (5-azacytidine or 2′-deoxy-5-azacytidine): traced by HPLC
Procedure: Non-Enzymatic Hydrolysis of Silyl Etherified Derivatives of 5-Azacytidines in Carbohydrate Moiety
5 μL of the solution was added to 100 μL of 10 mM PBS solution and stirred at 37° C. The reactions were traced by HPLC analysis.
HPLC conditions were same as those in test example 1.

[3] = PBS, cytidine deaminase, 37° C., about 1 hour, peak of the starting material

Sequence of cytidine deaminase: CDA (1-146aa), Human, His-tagged, Recombinant (P32320 whole entry): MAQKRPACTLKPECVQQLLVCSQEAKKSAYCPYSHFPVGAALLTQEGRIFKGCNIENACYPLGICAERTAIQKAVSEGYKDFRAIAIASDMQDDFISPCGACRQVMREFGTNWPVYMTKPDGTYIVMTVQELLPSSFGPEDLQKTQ

| SMILES | Change in HPLC pattern [1] | IC50 (RPMI-8226 myeloma cells) | 5-Azacytidine or 2′-deoxy-5-azacytidine (%) After 4 hours [2] | 5-Azacytidine or 2′-deoxy-5-azacytidine (%) After 8 hours [2] | 5-Azacytidine or 2′-deoxy-5-azacytidine (%) After 24 hours [2] | production of the desilylated parent (5-azacytidine or 2′-deoxy-5-azacytidine) [2] | Change in HPLC pattern [1, 3] | stability against cytidine deaminase (in words) ([1]; PBS, cytidine deaminase, 37° C.) |
| --- | --- | --- | --- | --- | --- | --- | --- | --- |
| CC[Si](CC)(CC)OC[C@H]1O[C@@H](n2cnc(N)nc2=O)[C@H](O)[C@@H]1O [compound J, 5′-O-Triethylsilyl-5-azacytidine] | Almost no change in the peak of the starting | 656 nM | 16% | 22% | 62% | production of 5-azacytidine was confirmed | – | – |
| CC(C)(C)[Si](C)(C)OC[C@H]1O[C@@H](n2cnc(N)nc2=O)[C@H](O)[C@@H]1O [compound E, 5′-O-(tert-Butyldimethylsilyl)-5-azacytidine] | Almost no change in the peak of the starting | – | – | – | – | – | – | – |
| CC[Si](CC)(CC)OC[C@H]1O[C@@H](n2cnc(N)nc2=O)C[C@@H]1O [compound K, 5′-O-Triethylsilyl-2′-deoxy-5-azacytidine] | – | 270 nM | 10% | 12% | 48% | production of corresponding deskill form (2′-deoxy-5-azacytidine) was confirmed | Almost no change in the peak of the starting | – |
| Nc1ncn([C@H]2C[C@H](O)[C@@H](CO)O2)c(=O)n1 [2′-Deoxy-5-azacytidine, 2′-deoxy-5-azacytidine, reference compound] | – | 30 nM | – | – | – | – | The peak of the starting material disappeared | disappeared completely |
